Measured values taken from PMC7269367 (Chemical research in toxicology, 2019).
Values belong to the compound of their own block, whether it stands above or below them.

Tests used:
[1] = test system: Dhcr7 / cholesterol biosynthesis in Neuro2a cells; test: Cellular sterol levels in Neuro2a cells after exposure; format: cell-based, Mouse; conditions: 100 nM; for cellular accumulation of 7-DHC, less than the accumulation caused by C10-BAC: 72 hours; for cellular desmosterol and cholesterol: 72 hour exposure, serum-free media, relative to Control
recombinant CYP2D6 = recombinant CYP2D6 (Homo sapiens, UniProt P10635); test: BAC consumption by human recombinant CYP2D6; format: in vitro ADME; conditions: 2 μM substrate, 50 nM P450, 30-minute incubation, NADPH
recombinant CYP2D6, sequence (P10635 whole entry): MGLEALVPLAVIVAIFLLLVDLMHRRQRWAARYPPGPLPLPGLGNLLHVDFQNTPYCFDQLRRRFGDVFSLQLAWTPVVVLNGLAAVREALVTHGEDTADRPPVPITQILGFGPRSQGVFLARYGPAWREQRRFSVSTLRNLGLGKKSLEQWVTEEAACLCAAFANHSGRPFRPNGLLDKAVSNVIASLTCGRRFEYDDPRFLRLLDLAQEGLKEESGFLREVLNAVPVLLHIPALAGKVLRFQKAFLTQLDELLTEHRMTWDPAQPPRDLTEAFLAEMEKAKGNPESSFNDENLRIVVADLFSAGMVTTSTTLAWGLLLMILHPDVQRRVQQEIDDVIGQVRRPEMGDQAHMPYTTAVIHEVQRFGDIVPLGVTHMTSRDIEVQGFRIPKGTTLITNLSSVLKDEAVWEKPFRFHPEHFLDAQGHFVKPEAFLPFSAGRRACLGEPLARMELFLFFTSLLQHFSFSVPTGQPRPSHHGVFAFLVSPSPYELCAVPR

[2] = test system: 3β-hydroxysterol-Δ^7-reductase (DHCR7); conditions: at nM concentrations; cited from earlier work
recombinant CYP4F12 = biological target: T1, recombinant CYP4F12 (Homo sapiens, UniProt Q9HCS2); test: BAC consumption by human recombinant CYP4F12; format: in vitro ADME; conditions: for substrate consumed by recombinant CYP4F12: 50 nM P450, 30-minute incubation, NADPH
T1 sequence (Q9HCS2 1-524): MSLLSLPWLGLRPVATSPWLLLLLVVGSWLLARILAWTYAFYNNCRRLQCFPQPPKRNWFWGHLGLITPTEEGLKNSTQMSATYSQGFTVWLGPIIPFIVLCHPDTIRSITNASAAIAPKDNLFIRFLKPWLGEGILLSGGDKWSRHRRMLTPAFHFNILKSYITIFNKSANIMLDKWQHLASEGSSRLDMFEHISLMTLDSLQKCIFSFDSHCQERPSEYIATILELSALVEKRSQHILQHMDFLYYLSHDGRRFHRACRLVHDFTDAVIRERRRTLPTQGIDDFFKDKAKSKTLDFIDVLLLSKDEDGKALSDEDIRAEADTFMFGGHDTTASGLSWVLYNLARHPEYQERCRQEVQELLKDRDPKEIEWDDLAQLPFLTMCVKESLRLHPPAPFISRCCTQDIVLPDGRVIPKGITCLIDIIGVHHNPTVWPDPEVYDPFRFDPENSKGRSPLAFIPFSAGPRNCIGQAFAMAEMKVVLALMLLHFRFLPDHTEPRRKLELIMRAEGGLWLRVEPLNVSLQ

recombinant CYP3A4 = recombinant CYP3A4 (Homo sapiens, UniProt P08684); test: BAC consumption by human recombinant CYP3A4; format: in vitro ADME; conditions: 2 μM substrate, 50 nM P450, 30-minute incubation, NADPH
recombinant CYP3A4, sequence (P08684 whole entry): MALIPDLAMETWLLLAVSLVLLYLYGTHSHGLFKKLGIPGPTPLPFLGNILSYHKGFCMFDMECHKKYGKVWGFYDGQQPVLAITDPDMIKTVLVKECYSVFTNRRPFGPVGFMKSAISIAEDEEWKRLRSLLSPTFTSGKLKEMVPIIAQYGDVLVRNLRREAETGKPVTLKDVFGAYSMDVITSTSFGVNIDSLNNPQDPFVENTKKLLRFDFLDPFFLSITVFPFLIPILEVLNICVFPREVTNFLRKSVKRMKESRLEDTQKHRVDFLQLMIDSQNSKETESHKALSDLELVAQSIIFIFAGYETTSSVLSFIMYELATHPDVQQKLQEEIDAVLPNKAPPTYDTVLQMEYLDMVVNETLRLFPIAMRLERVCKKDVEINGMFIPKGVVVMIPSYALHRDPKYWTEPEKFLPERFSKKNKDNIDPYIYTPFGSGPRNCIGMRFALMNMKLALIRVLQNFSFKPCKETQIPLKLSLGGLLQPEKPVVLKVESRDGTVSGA

[3] = Time-courses of C10-BAC depletion and metabolite formation in HLM; conditions: HLM 0.2 mg/mL
[4] = Kinetic characterization of C10-BAC hydroxylation in HLM; format: in vitro ADME, human; conditions: HLM 0.04 mg/mL, NADPH, 0.1 to 128 μM C10-BAC, initial rates
[5] = Metabolic stability of BACs in HLM; format: in vitro ADME, human; conditions: BAC 2 μM incubated separately, HLM 1 mg/mL, NADPH-dependent consumption
recombinant CYP4F2 = biological target: T2, recombinant CYP4F2 (Homo sapiens, UniProt P78329); test: BAC consumption by human recombinant CYP4F2; format: in vitro ADME; conditions: for effective inhibitor of recombinant CYP4F2 (C16-BAC consumption): inhibitor 1 μM, C16-BAC 2 μM, 50 nM P450, 20 minutes
T2 sequence (P78329 5-520): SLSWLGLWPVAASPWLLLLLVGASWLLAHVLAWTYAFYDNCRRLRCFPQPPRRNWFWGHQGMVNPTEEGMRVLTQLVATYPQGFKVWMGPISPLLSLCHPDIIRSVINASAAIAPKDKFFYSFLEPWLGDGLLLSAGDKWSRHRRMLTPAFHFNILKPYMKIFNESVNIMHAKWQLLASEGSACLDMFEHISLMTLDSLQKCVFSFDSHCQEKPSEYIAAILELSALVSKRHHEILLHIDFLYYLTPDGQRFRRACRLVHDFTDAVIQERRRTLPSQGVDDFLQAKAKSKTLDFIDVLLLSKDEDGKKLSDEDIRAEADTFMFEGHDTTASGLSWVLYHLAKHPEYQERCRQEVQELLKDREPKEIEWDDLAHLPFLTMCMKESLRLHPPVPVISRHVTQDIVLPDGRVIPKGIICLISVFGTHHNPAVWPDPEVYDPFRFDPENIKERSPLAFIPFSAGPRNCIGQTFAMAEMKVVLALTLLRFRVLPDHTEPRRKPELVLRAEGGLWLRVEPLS

recombinant CYP2A6 = biological target: T3, recombinant CYP2A6 (Homo sapiens, UniProt P11509); test: BAC consumption by human recombinant CYP2A6; format: in vitro ADME; conditions: 2 μM substrate, 50 nM P450, 30-minute incubation, NADPH
T3 sequence (P11509 1-494): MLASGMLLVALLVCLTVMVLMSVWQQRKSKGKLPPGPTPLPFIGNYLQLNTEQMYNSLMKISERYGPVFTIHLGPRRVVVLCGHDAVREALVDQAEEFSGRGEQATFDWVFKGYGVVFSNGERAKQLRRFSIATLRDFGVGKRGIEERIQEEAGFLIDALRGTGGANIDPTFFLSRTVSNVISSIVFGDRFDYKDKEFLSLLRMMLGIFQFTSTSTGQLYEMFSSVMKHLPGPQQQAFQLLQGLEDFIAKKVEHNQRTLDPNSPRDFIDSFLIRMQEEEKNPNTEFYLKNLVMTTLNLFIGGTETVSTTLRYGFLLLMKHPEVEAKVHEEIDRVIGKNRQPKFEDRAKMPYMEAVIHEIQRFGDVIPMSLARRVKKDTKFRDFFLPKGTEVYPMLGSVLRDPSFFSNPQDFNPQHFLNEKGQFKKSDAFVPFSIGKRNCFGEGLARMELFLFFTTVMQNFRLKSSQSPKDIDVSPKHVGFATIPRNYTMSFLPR

SMILES: CC(O)CCCCCCCC[N+](C)(C)Cc1ccccc1.[Cl-] (stereo not shown) [(ω−1)-hydroxy-C10-BAC]
- cellular accumulation of 7-DHC, less than the accumulation caused by C10-BAC [1]: over 2 orders of magnitude

SMILES: Cl.Cl.Clc1ccccc1CNCC1CCC(CNCc2ccccc2Cl)CC1 (stereo not shown) [AY9944, reference compound]
- cellular desmosterol and cholesterol [1]: significant decreased level

SMILES: C[N+](C)(CCCCCCCCCCO)Cc1ccccc1.[Cl-] [ω-hydroxy-C10-BAC]
- cellular accumulation of 7-DHC, less than the accumulation caused by C10-BAC [1]: over 2 orders of magnitude

Now from value to compound, other results behind:

- substrate consumed by recombinant CYP2D6 (recombinant CYP2D6): essentially all
- substrate consumed by recombinant CYP4F12 (recombinant CYP4F12; 2 μM substrate): essentially all
- substrate consumed by recombinant CYP3A4 (recombinant CYP3A4): 15%
- C10-BAC concentration remaining at the 4-minute time point ([3]; 680 nM initial substrate, NADPH, no inhibitor): 341 ± 7 nM
- Km ([4]; read-out: Km of (ω−1)-hydroxylation): 0.13 µM
- apparent half-life in HLM [5]: approximately 1 minutes
SMILES: CCCCCCCCCC[N+](C)(C)Cc1ccccc1.[Cl-] [C10-BAC]
- inhibition of DHCR7 in the cholesterol biosynthesis pathway [2]: inhibit
- cellular desmosterol and cholesterol [1]: significant decreased level
- Vmax of (ω−1)-hydroxylation [4]: 126 pmol/min/mg
- Vmax of ω-hydroxylation [4]: 380 pmol/min/mg

- apparent half-life in HLM [5]: ~6 min
SMILES: CCCCCCCCCCCCCC[N+](C)(C)Cc1ccccc1.[Cl-] [C14-BAC]

- substrate consumed by recombinant CYP4F2 (recombinant CYP4F2; 2 μM substrate, 50 nM P450, 30-minute incubation, NADPH): 45%
- substrate consumed by recombinant CYP2D6 (recombinant CYP2D6): 77%
- substrate consumed by recombinant CYP4F12 (recombinant CYP4F12; 2 μM substrate): 88%
- C16-BAC percent remaining with recombinant CYP4F12, HET0016 alone (recombinant CYP4F12; 2 μM substrate, 50 nM P450, 20 minute incubation, HET0016 1 μM, mean ± SD, n = 3): 49% ± 6%
- C16-BAC percent remaining with recombinant CYP4F12, no inhibitor (recombinant CYP4F12; 2 μM substrate, 50 nM P450, 20 minute incubation, no inhibitor, mean ± SD, n = 3): 26% ± 4%
- apparent half-life in HLM [5]: ~15 min
- substrate consumed by recombinant CYP2A6 (recombinant CYP2A6): 5%
SMILES: CCCCCCCCCCCCCCCC[N+](C)(C)Cc1ccccc1.[Cl-] [C16-BAC]

- effective inhibitor of recombinant CYP4F2 (C16-BAC consumption) (recombinant CYP4F2): essentially complete inhibition
- effect on (ω−1)-ketone formation from C10-BAC in HLM ([3]; inhibitor 1 μM, C10-BAC 680 nM): suppressing
- effect on C10-BAC (ω−1)-hydroxylation / oxidation at the (ω−1)-position in HLM ([3]; inhibitor 1 μM, C10-BAC 680 nM): promoted
- effect on C10-BAC ω-hydroxylation (ω-hydroxy metabolite formation) in HLM ([3]; inhibitor 1 μM, C10-BAC 680 nM): nearly complete inhibition
- effect on ω-carboxylic acid formation from C10-BAC in HLM ([3]; inhibitor 1 μM, C10-BAC 680 nM): nearly complete inhibition
SMILES: CCCCc1ccc(N=CNO)c(C)c1 [HET0016]

- effective inhibitor of recombinant CYP4F2 (C16-BAC consumption) (recombinant CYP4F2): not
- inhibition of C16-BAC consumption by recombinant CYP4F12 (recombinant CYP4F12; inhibitor 1 μM alone, C16-BAC 2 μM, 50 nM P450, 20 minutes): did not inhibit
- effect on C10-BAC (ω−1)-hydroxylation / oxidation at the (ω−1)-position in HLM ([3]; inhibitor 1 μM, C10-BAC 680 nM): primarily inhibitory
- effect on C10-BAC ω-hydroxylation (ω-hydroxy metabolite formation) in HLM ([3]; inhibitor 1 μM, C10-BAC 680 nM): did not inhibit
- effect on ω-carboxylic acid formation from C10-BAC in HLM ([3]; inhibitor 1 μM, C10-BAC 680 nM): partial suppression
SMILES: C=C[C@H]1C[N@@]2CC[C@H]1C[C@@H]2[C@@H](O)c1ccnc2ccc(OC)cc12 [quinidine]
